Among the data in the METLIN SMRT retention time set (Domingo-Almenara et al. 2019) are RP-LC retention time values, retold here.

The series can be described thus: gradient 5% acetonitrile 3 min, to 50% in 2 min, to 85% in 15 min, held 3 min, 100 µL/min. The note with it: column: Zorbax Extend-C18 2.1 x 50 mm; eluents: water / acetonitrile, 0.1% formic acid. The gist of the method: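 Standards, all pure, were combined into mixtures of ~100 molecules and run at 100 μL/min on a Zorbax Extend-C18 column (2.1 × 50 mm, 1.8 μm) with water and acetonitrile, each containing 0.1% formic acid. A coupled quadrupole time-of-flight mass spectrometer operated in positive and negative ionization mode. Retention time values come from computationally picked adduct peaks, each inspected manually.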
With `Cc1sc(-c2nnc(C3CC3)o2)cc1NC(=O)c1ccc(N(C)C)cc1`, the RP-LC retention time is 963 s.

The molecule `COc1ccc(-c2cc(N3CCN(C(=O)c4ccc(Br)o4)CC3)ncn2)cc1` showed an RP-LC retention time of 591 s.

Consider `COc1ccc(OC)c(-n2cc(C(=O)O)c3c2C(C(F)(F)F)CC(=O)N3)c1` (stereo unspecified), for which the RP-LC retention time worked out at 730 s.

`CCc1nc2nccc(-c3ccc(OC)cc3)n2n1`: the RP-LC retention time came to 784 s.

`Cc1ccc(-c2nnc(-c3nc(NCCCN4CCCC4=O)c4ccccc4n3)o2)cc1` had an RP-LC retention time of 807 s.

Turning to `Cc1ccc(-n2ccc(=O)c(-c3nc(-c4ccccc4C)no3)n2)cc1C`, the RP-LC retention time was found to be 1060 s.

As to `CCOc1ccc(-c2nc(Cc3noc(-c4ccc(C#N)cc4)n3)c(C)o2)cc1`, the RP-LC retention time was 1160 s.

With `CCn1c(=O)c(NCc2ccc(C(C)C)cc2)nc2ccncc21`, the RP-LC retention time was 720 s.

The molecule `O=C1COc2ccc(-c3csc(NC(=O)c4ccco4)n3)cc2N1` registered an RP-LC retention time of 741 s.

`CC(=O)N1C[C@@H]2CCCN3CCC[C@@H]([C@H]23)[C@H]1CCCC(=O)NCC(C)C` gave an RP-LC retention time of 577 s.

`O=C(CSc1nc2ccccc2s1)NCCn1nc(-c2ccco2)ccc1=O` displayed an RP-LC retention time of 687 s.

The molecule `Cc1ccc(N2CCC(NC(=O)c3ccc(C(F)(F)F)cc3)C2=O)cc1` (stereo unspecified) returned an RP-LC retention time of 953 s.

`CCCN(C)C(=O)c1cc(=O)[nH]c2ccccc12` yielded an RP-LC retention time of 614 s.

`Cc1nc(-c2csc(S(=O)(=O)N3CCCC(C(=O)Nc4cc(F)ccc4F)C3)c2)no1` (stereo unspecified) came in with an RP-LC retention time of 996 s.

Consider `O=C(Cc1nnc(-c2ccc3ncccc3c2)o1)Nc1ccc(F)c(F)c1`, for which the RP-LC retention time was found to be 741 s.

`Cc1cc(=O)n(CC(=O)Nc2ccc(F)c(F)c2)c(N2CCOCC2)n1`: the RP-LC retention time was 687 s.

Molecule `Cc1ccc(NC(=O)C2CCN(C(=O)c3ncn4c3COC(c3ccc(F)cc3)C4)CC2)cc1C` (stereo unspecified) came in with an RP-LC retention time of 848 s.

Molecule `CCOc1cccc(-c2noc(Cn3c(=O)n(-c4ccc(F)cc4)c(=O)c4sccc43)n2)c1` came in with an RP-LC retention time of 1050 s.

Take `CCOC(=O)c1cnc2c(cnn2CC)c1NN=C(C)C`: the RP-LC retention time came out at 1010 s.

Regarding `CCC(=O)N1CCc2cc(N3CC(C(=O)Nc4ccc(OC)cc4C)CC3=O)ccc21` (stereo unspecified), the RP-LC retention time is 720 s.

The molecule `Cc1ccc(-c2cn3ccccc3n2)cc1NS(=O)(=O)c1ccccc1` showed an RP-LC retention time of 630 s.

As for `O=C(c1nc(-c2cnccn2)no1)N1CCc2ccccc21`, the RP-LC retention time is 740 s.

Molecule `O=C(Nc1ccc(F)cc1)OC1CCCC(NC(=O)c2ccc(Br)o2)C1` (stereo unspecified) displayed an RP-LC retention time of 853 s.

In turn, `CC(C)(C)c1noc(-c2ccnc(-n3cnc(C(=O)NC4CCCCC4)c3)c2)n1` showed an RP-LC retention time of 1100 s.

`O=C(c1cn2ccccc2n1)N1CCN(Cc2cccc(F)c2)CC1` returned an RP-LC retention time of 555 s.

In turn, `CS(=O)(=O)N1CCc2cc(NC(=O)Nc3ccc(Br)cc3F)ccc21` gave an RP-LC retention time of 954 s.

`Cn1nnc2cc(-c3noc(C4CC(=O)N(c5cccc(Cl)c5)C4)n3)ccc21` (stereo unspecified) gave an RP-LC retention time of 864 s.

`CCn1ccc(C(=O)N2CCN(c3nnc4ccc(Cl)cn34)CC2)n1` returned an RP-LC retention time of 562 s.

Regarding `CCCCNC(=O)c1cn(-c2cc(-c3nc(C)no3)ccn2)cn1`, the RP-LC retention time came out at 779 s.

As for `Cc1cnc(C(=O)N2CCCn3ccnc3C2C2CCCC2)cn1` (stereo unspecified), the RP-LC retention time came out at 582 s.

Molecule `Cc1cc2n(n1)CCC(=O)N2CCCC(=O)NCc1ccc(C)o1` had an RP-LC retention time of 644 s.

With `Cn1nnc2cc(CNC(=O)c3cccnc3)ccc21`, the RP-LC retention time is 566 s.

As to `Cc1ccc(NC(=O)N2CCC(c3nc(C(=O)N4CCOCC4)c(C)o3)CC2)c(C)c1`, the RP-LC retention time worked out at 709 s.

Molecule `CCN1CCN(C(=O)CN2C(=O)c3ccccc3Sc3ncccc32)CC1` gave an RP-LC retention time of 581 s.

In the case of `Cc1cnn(Cc2c(C(=O)N3C[C@@H](C(N)=O)[C@H](c4nc(C)no4)C3)noc2C)c1`, the RP-LC retention time is 590 s.

Consider `Cc1cc(C)c(NC(=O)C2CCCN2S(=O)(=O)c2cc3c(cc2C)NC(=O)CO3)c(C)c1` (stereo unspecified), for which the RP-LC retention time turned out to be 799 s.

The molecule `CCOC(=O)c1c(C)oc2nc(C)nc(NC3CCCc4ccccc43)c12` (stereo unspecified) yielded an RP-LC retention time of 1130 s.

`O=C1NCCCCCCN(C(=O)c2cccs2)[C@H]2CCCC[C@@H]12` showed an RP-LC retention time of 838 s.

`Cc1ccccc1CNC(=O)c1cn2ccncc2n1` had an RP-LC retention time of 692 s.

`Cn1c(=O)c(N2CCC(C(=O)NCCc3ccco3)CC2)nc2cccnc21` gave an RP-LC retention time of 811 s.

Molecule `O=C(NCc1ccccc1F)C1CCN(c2cc(N3CCCCC3)ncn2)CC1` returned an RP-LC retention time of 680 s.

`CC(=O)N1c2ccccc2CC1c1nc(C(C)C)no1` (stereo unspecified) yielded an RP-LC retention time of 841 s.

Turning to `O=C(c1ccc(F)c(Cl)c1)N1CCN(C(=O)c2nnn3c2COC(c2ccccc2)C3)CC1` (stereo unspecified), the RP-LC retention time amounted to 913 s.

As for `CC1(C)C(=O)NCCN1C(=O)C1COc2ccccc2O1` (stereo unspecified), the RP-LC retention time was determined as 628 s.

Turning to `Nc1cc(Nc2ccc(Br)cc2)nc(N)n1`, the RP-LC retention time stood at 688 s.

The molecule `CCCn1cc(CNC(=O)C2CCCN(c3nnc4ccc(C(F)(F)F)cn34)C2)c(C)n1` (stereo unspecified) yielded an RP-LC retention time of 709 s.

With `CCN(Cc1ccccc1)Cc1nc(-c2ccc(N3CCOCC3)nc2)no1`, the RP-LC retention time was 772 s.

As to `O=C(NCc1cccc(Cl)c1)c1c(O)c2cccnc2n(-c2ccccc2)c1=O`, the RP-LC retention time is 1220 s.

`CCOC(=O)c1c(C)[nH]c(CCC(=O)NCCC(C)C)c1C` showed an RP-LC retention time of 816 s.

Molecule `O=C(Cc1cc(-c2cc3ccccc3o2)on1)NCCC1=CCCCC1` had an RP-LC retention time of 1060 s.

As to `CC(C)Cn1cc(S(=O)(=O)Nc2ccc(F)cc2Cl)c2cccnc21`, the RP-LC retention time was 1010 s.

Molecule `CCOc1ncccc1CNS(=O)(=O)c1cccnc1` displayed an RP-LC retention time of 661 s.

`COc1ccccc1NC(=O)NC(C)(C)CC(C)(C)C` registered an RP-LC retention time of 1010 s.

`COc1ccccc1NC(=O)C1CCCN1S(=O)(=O)c1cc2c(cc1Cl)NC(=O)CO2` (stereo unspecified) yielded an RP-LC retention time of 805 s.

In turn, `CC(=O)c1ccc2c(c1)[C@H](NC(=O)c1ccc(F)c(Cl)c1)[C@H](O)C(C)(C)O2` registered an RP-LC retention time of 944 s.

The molecule `Cc1ccc(-c2nc3cnccn3c2Nc2ccc(Cl)cc2)cc1` yielded an RP-LC retention time of 1000 s.

`Cc1nnc(N2CCC(C(=O)N3CCN(c4ccccn4)CC3)CC2)c2nn(-c3ccccc3)c(C)c12` showed an RP-LC retention time of 569 s.

Take `COc1ccc(-c2nnc(-c3ccc(C)c(S(N)(=O)=O)c3)o2)cc1OC`: the RP-LC retention time was 731 s.

For `COC(=O)c1ccc(NC(=O)N2CCCC2c2cccc(F)c2)cc1` (stereo unspecified), the RP-LC retention time is 898 s.

`CC(C)N1CC(CNC(=O)c2ccc(Cl)s2)C2(CCCCC2)C1` (stereo unspecified) returned an RP-LC retention time of 694 s.

Regarding `O=C(Cc1ccccc1)NCc1nc(-c2cccc(-c3ccn[nH]3)c2)no1`, the RP-LC retention time is 898 s.

Take `CC1CCCN(c2nn(CC(=O)Nc3ccc(C(F)(F)F)cc3)c(=O)c3ccccc23)C1` (stereo unspecified): the RP-LC retention time was 1170 s.

`Cc1csc(NC(=O)c2ccc(Br)cc2)n1` yielded an RP-LC retention time of 902 s.

`COc1ccc(-c2cc3n(n2)C(NCc2cccs2)CNC3=O)cc1` (stereo unspecified) displayed an RP-LC retention time of 825 s.

Consider `CS(=O)(=O)c1ccc2nc(NCCc3cccs3)sc2c1`, for which the RP-LC retention time is 738 s.

In turn, `Fc1ccccc1-c1nc(-c2ccc3nncn3c2)no1` returned an RP-LC retention time of 785 s.

In turn, `CC1CC(=O)N(CC(=O)Nc2ccc(C(F)(F)F)cc2)c2ccccc2S1(=O)=O` (stereo unspecified) showed an RP-LC retention time of 904 s.

`CC(Cc1ccco1)NC(=O)c1ccc2ccnc(N3CCN(c4ccc(F)cc4)CC3)c2c1` (stereo unspecified) gave an RP-LC retention time of 829 s.

In the case of `Cc1cc(C(=O)N2CCCCCC2c2nnc(C)o2)no1` (stereo unspecified), the RP-LC retention time is 698 s.

Consider `CCn1nccc1-c1csc(S(=O)(=O)N2CCN(c3ccccn3)CC2)c1`, for which the RP-LC retention time is 657 s.

In turn, `COc1cccc(OC)c1C(=O)Nc1nc(-c2ccc3c(c2)NC(=O)CO3)c(C)s1` showed an RP-LC retention time of 785 s.

`Cc1cccc(Sc2nccnc2N2CCCC(C(=O)NCCN3CCOCC3)C2)c1` (stereo unspecified) gave an RP-LC retention time of 686 s.

For `Cc1nc(CC(=O)Nc2ccc(F)cc2Cl)cs1`, the RP-LC retention time was found to be 845 s.

In the case of `Cc1ccc(-c2noc(C(=O)N3CCOCC3)n2)cc1S(=O)(=O)N1CCN(c2ncccn2)CC1`, the RP-LC retention time is 906 s.

Regarding `Cc1ccc(OCc2nnc(SCC(=O)Nc3nc(-c4ccccc4)cs3)o2)cc1`, the RP-LC retention time came to 875 s.

Consider `Cc1cc(C)c2c(N3CCCC3)nc(C(=O)Nc3ccc4c(c3)OCCO4)nc2n1`, for which the RP-LC retention time is 583 s.

Molecule `COc1ccc(-c2nnc(-c3ccc(C)c(S(=O)(=O)N4CCCCCC4)c3)o2)cc1` showed an RP-LC retention time of 1150 s.

For `Cc1ccc(C)c(Cn2nnc(C(=O)O)c2C)c1`, the RP-LC retention time came to 783 s.

For the molecule `CCOC(=O)C1CCN(C(=O)c2sc(-c3cn(C(C)C)c4ncccc34)nc2C)CC1`, the RP-LC retention time amounted to 961 s.

With `Cc1cc(CN2CCC(CNC(=O)C(=O)NCc3ccccc3Cl)CC2)c(C)o1`, the RP-LC retention time was 592 s.

As to `O=C(Nc1cccc(-c2nnc3n2CCCC3)c1)c1ccc2ccccc2n1`, the RP-LC retention time was determined as 779 s.
